Like-named read-outs stand apart in the source and are kept apart here.
Key:
[1] = biological target: T1, MDR1 P-glycoprotein (P-gp) (Homo sapiens, UniProt P08183); test: Transporter assay, bi-directional transport, MDCK-MDR1 cells; format: in vitro ADME; settings: basolateral to apical / apical to basolateral, >2 = substrate; for efflux ratio at 2 h, 0.1 uM: human, MDCK-MDR1, 0.1 uM, read-out: PGP (efflux ratio); for PGP (efflux ratio): 0.1 uM, 2 hours
T1 construct: host or cells: MDCK (MDCK-MDR1)
Procedure: (§1) Compounds were assessed as substrates of MDR1 P-glycoprotein (P-gp) and mouse Breast Cancer Resistance Protein (mBcrp) at 0.1 uM, for 2 hours, in bi-directional transport assays using recombinant MDCK cell lines as described previously (Feng et al. Drug Metabolism and Disposition 2008, Vol. 36:268-275). MDCK-MDR1 and MDCK-mBcrp cells were acquired from the National Institutes of Health (Bethesda, MID) and the Netherlands Cancer Institute respectively, and used under license agreement. Data are expressed as efflux ratios, where transport across the cell monolayer in the basolateral to apical direction is divided by transport in the apical to basolateral direction. Efflux ratios >2 indicate the test compound is a substrate of the transporter tested.

[2] = system: MLKL phosphorylation (pMLKL) in HT29-L23 cells; test: MLKL Phosphorylation High-Content Assay; format: cell-based; settings: necroptosis induced with human TNFα, SMAC mimetic and Z-VAD, 6 h, read-out: LE pMLKL HC IC50
Outline: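 HT29-L23 cells incubated 6 h at 37° C before detection of phospho-MLKL by immunostaining with anti-phospho-MLKL antibody (1:1000 in PBS/0.1% BSA, overnight at 4° C). Readout by high-content imaging with compartmental image analysis.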

[3] = biological target: T2, mouse Breast Cancer Resistance Protein (mBcrp) (Mus musculus, UniProt Q7TMS5); test: Transporter assay, bi-directional transport, MDCK-mBcrp cells; format: in vitro ADME; settings: basolateral to apical / apical to basolateral, >2 = substrate; for efflux ratio at 2 h, 0.1 uM: mouse, read-out: BCRP (efflux ratio); for BCRP (efflux ratio): 0.1 uM, 2 hours
T2 construct: host or cells: MDCK (MDCK-mBcrp)
T2 sequence (Q7TMS5 1-657): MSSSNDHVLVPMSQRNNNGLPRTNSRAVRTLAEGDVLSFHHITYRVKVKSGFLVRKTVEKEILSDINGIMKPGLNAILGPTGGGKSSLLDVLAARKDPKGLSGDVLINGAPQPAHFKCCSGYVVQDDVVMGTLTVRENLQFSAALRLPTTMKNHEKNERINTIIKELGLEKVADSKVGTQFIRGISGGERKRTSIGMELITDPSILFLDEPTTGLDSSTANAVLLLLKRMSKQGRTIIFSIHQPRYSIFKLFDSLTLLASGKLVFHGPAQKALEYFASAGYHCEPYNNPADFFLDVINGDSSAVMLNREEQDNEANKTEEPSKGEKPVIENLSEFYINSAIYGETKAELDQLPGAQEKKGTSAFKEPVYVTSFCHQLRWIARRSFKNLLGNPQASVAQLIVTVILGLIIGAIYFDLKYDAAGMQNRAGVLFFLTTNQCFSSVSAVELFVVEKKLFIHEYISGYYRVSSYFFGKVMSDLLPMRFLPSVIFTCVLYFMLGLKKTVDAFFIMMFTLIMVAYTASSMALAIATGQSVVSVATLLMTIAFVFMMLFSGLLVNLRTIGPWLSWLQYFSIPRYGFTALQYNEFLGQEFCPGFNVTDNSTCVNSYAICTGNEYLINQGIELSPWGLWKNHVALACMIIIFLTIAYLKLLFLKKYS
Procedure: as §1

T1 sequence (P08183 whole entry): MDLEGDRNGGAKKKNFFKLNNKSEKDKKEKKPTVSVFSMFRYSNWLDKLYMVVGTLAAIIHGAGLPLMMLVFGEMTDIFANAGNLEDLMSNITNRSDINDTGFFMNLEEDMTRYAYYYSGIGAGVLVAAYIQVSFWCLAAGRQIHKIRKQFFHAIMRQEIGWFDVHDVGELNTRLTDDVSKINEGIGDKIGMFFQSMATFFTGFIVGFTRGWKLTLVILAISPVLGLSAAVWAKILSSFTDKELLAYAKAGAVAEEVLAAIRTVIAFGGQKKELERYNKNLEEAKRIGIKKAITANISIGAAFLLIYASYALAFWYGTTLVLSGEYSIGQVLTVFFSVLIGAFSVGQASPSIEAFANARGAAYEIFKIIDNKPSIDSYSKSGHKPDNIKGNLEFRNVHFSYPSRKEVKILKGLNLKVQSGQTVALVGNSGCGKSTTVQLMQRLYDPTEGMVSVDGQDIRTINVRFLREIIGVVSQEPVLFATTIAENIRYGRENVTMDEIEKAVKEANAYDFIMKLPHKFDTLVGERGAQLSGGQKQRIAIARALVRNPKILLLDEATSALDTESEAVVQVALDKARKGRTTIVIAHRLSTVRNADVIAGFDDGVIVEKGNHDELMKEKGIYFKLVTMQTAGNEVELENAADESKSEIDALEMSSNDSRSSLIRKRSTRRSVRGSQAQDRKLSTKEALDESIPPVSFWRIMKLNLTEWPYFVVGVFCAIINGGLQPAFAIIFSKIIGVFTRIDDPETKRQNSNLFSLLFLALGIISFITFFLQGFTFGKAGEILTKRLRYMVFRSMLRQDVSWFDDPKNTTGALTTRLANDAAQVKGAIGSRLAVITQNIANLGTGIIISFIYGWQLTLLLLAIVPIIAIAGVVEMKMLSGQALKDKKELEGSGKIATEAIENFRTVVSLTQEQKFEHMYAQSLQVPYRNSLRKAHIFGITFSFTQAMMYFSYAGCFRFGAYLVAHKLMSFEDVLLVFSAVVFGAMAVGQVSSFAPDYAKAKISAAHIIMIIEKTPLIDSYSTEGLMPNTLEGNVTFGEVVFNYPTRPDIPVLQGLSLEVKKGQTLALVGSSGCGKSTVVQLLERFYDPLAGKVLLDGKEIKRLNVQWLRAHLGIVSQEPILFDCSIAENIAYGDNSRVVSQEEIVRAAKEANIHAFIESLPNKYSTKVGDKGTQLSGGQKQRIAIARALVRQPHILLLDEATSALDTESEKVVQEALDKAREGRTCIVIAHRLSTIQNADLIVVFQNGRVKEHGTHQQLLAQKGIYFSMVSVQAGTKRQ

Compound | efflux ratio at 2 h, 0.1 uM [1] | IC50 [2] [nM] | efflux ratio at 2 h, 0.1 uM [3] | PGP (efflux ratio) [1] | BCRP (efflux ratio) [3] | IC50 ([2]; Homo sapiens) [nM]
CC(O)(c1ccc(F)cc1)C(F)(F)CCOc1cccc(-c2ccn3nc(N)nc3c2)c1F (single isomer, unassigned) [Example 2, 5-(3-(2-amino-[1,2,4]triazolo[1,5-a]pyridin-7-yl)-2-fluorophenoxy)-3,3-difluoro-2-(4-fluorophenyl)pentan-2-ol] | 1.8 | 4 | 6.2 |  |  | 
CC(O)(c1ccc(F)cc1)C(F)(F)CCOc1cccc(-c2ccn3nc(N)nc3c2)c1F (single isomer, unassigned) [Example 3, 5-(3-(2-amino-[1,2,4]triazolo[1,5-a]pyridin-7-yl)-2-fluorophenoxy)-3,3-difluoro-2-(4-fluorophenyl)pentan-2-ol] |  | 0.1 |  | 1.2 | 3.4 | 
CC(O)(c1ccc(F)cc1)C(F)(F)CCOc1c(Cl)ccc(-c2ccn3nc(N)nc3c2)c1F (single isomer, unassigned) [Example 4, 5-(3-(2-amino-[1,2,4]triazolo[1,5-a]pyridin-7-yl)-6-chloro-2-fluorophenoxy)-3,3-difluoro-2-(4-fluorophenyl)pentan-2-ol] |  | 0.5 |  | 1.5 | 1.7 | 
[2H]C([2H])(CC(F)(F)C(C)(O)c1ccc(F)cc1)Oc1cccc(-c2ccn3nc(N)nc3c2)c1F (single isomer, unassigned) [Example 13, 5-(3-(2-amino-[1,2,4]triazolo[1,5-a]pyridin-7-yl)-2-fluorophenoxy)-3,3-difluoro-2-(4-fluorophenyl)pentan-5,5-d2-2-ol] | 1.8 | 0.1 | 3.9 |  |  | 
[2H]C([2H])(CC(F)(F)C(C)(O)c1ccc(F)cc1)Oc1c(F)ccc(-c2ccn3nc(N)nc3c2)c1F (single isomer, unassigned) [Example 15, 5-(3-(2-amino-[1,2,4]triazolo[1,5-a]pyridin-7-yl)-2,6-difluorophenoxy)-3,3-difluoro-2-(4-fluorophenyl)pentan-5,5-d2-2-ol] | 1.4 | 0.3 | 2.9 |  |  | 
CC(O)(c1ccc(F)cn1)C(F)(F)CCOc1c(Cl)ccc(-c2ccn3nc(N)nc3c2)c1F (single isomer, unassigned) [Example 31, 5-(3-(2-amino-[1,2,4]triazolo[1,5-a]pyridin-7-yl)-6-chloro-2-fluorophenoxy)-3,3-difluoro-2-(5-fluoropyridin-2-yl)pentan-2-ol] | 5.3 | 2 | 1.4 |  |  | 
Nc1nc2cc(-c3ccc(F)c(OCCC(F)(F)C(O)c4ccc(F)cn4)c3F)ccn2n1 (single isomer, unassigned) [Example 34, 4-(3-(2-amino-[1,2,4]triazolo[1,5-a]pyridin-7-yl)-2,6-difluorophenoxy)-2,2-difluoro-1-(5-fluoropyridin-2-yl)butan-1-ol] | 2.4 |  | 7 |  |  | 8
CC(O)(c1ccccc1)C(F)(F)CCOc1c(F)ccc(-c2ccn3nc(N)nc3c2F)c1F (single isomer, unassigned) [Example 38, 5-(3-(2-amino-8-fluoro-[1,2,4]triazolo[1,5-a]pyridin-7-yl)-2,6-difluorophenoxy)-3,3-difluoro-2-phenylpentan-2-ol] | 2.1 |  | 5.1 |  |  | 0.3
CC(O)(c1ccccc1)C(F)(F)CCOc1c(F)ccc(-c2ccn3nc(N)nc3c2)c1F (single isomer, unassigned) [Example 40, 5-(3-(2-amino-[1,2,4]triazolo[1,5-a]pyridin-7-yl)-2,6-difluorophenoxy)-3,3-difluoro-2-phenylpentan-2-ol] | 1.7 | 0.6 | 4.8 |  |  | 
C[C@](O)(c1ccc(F)cc1)C(F)(F)CCOc1c(F)ccc(-c2ccn3nc(N)nc3c2)c1F (single isomer, unassigned) [Example 49, 5-(3-(2-amino-[1,2,4]triazolo[1,5-a]pyridin-7-yl)-2,6-difluorophenoxy)-3,3-difluoro-2-(4-fluorophenyl)pentan-2-ol] | 1.5 |  | 4 |  |  | 34
C[C@@](O)(c1ccc(F)cc1)C(F)(F)CCOc1c(F)ccc(-c2ccn3nc(N)nc3c2)c1F (single isomer, unassigned) [Example 50, 5-(3-(2-amino-[1,2,4]triazolo[1,5-a]pyridin-7-yl)-2,6-difluorophenoxy)-3,3-difluoro-2-(4-fluorophenyl)pentan-2-ol] | 1.6 |  | 2.4 |  |  | 0.4
CC(O)(c1ccc(F)cc1)C(F)(F)CCOc1c(Cl)ccc(-c2ccn3nc(N)nc3c2)c1F (single isomer, unassigned) [Example 52, 5-(3-(2-amino-[1,2,4]triazolo[1,5-a]pyridin-7-yl)-6-chloro-2-fluorophenoxy)-3,3-difluoro-2-(4-fluorophenyl)pentan-2-ol] | 1.5 | 0.5 | 1.7 |  |  | 
CC(O)(c1ccc(F)cc1)C(F)(F)CCOc1ccc(Cl)c(-c2ccn3nc(N)nc3c2)n1 (single isomer, unassigned) [Example 80, 5-((6-(2-amino-[1,2,4]triazolo[1,5-a]pyridin-7-yl)-5-chloropyridin-2-yl)oxy)-3,3-difluoro-2-(4-fluorophenyl)pentan-2-ol] | 5.9 | 6.8 | 5.6 |  |  | 
CC(CC(F)(F)C(C)(O)c1ccc(F)cc1)Oc1c(F)ccc(-c2ccn3nc(N)nc3c2)c1F (single isomer, unassigned) [Example 129, 5-(3-(2-amino-[1,2,4]triazolo[1,5-a]pyridin-7-yl)-2,6-difluorophenoxy)-3,3-difluoro-2-(4-fluorophenyl)hexan-2-ol] |  | 70 |  |  |  | 
CC(C)(CC(F)(F)C(C)(O)c1ccc(F)cc1)Oc1c(F)ccc(-c2ccn3nc(N)nc3c2)c1F (single isomer, unassigned) [Example 130, 5-(3-(2-amino-[1,2,4]triazolo[1,5-a]pyridin-7-yl)-2,6-difluorophenoxy)-3,3-difluoro-2-(4-fluorophenyl)-5-methylhexan-2-ol] |  | 4200 |  |  |  | 
CC(C)(CC(F)(F)C(C)(O)c1ccc(F)cc1)Oc1c(F)ccc(-c2ccn3nc(N)nc3c2)c1F (single isomer, unassigned) [Example 131, 5-(3-(2-amino-[1,2,4]triazolo[1,5-a]pyridin-7-yl)-2,6-difluorophenoxy)-3,3-difluoro-2-(4-fluorophenyl)-5-methylhexan-2-ol] |  | 3.4 |  |  |  | 
Nc1nc2cc(-c3cccc(OCCC(F)(F)COc4cc(Cl)ccn4)c3F)ccn2n1 [Example 1, 7-(3-(4-((4-chloropyridin-2-yl)oxy)-3,3-difluorobutoxy)-2-fluorophenyl)-[1,2,4]triazolo[1,5-a]pyridin-2-amine] |  |  |  |  |  | 140
Cc1ccc(-c2ccn3nc(N)nc3c2)c(F)c1C(=O)NCC(F)(F)C(O)c1ccc(F)cc1 (centres unmarked) [Example 30 from WO2022/086828, reference compound] | 35 |  | 43 |  |  | 
Nc1nc2cc(-c3cccc(OCCC(F)(F)Oc4ccc(F)cc4)c3F)ccn2n1 [Example 65, 7-(3-(3,3-difluoro-3-(4-fluorophenoxy)propoxy)-2-fluorophenyl)-[1,2,4]triazolo[1,5-a]pyridin-2-amine] |  |  |  |  |  | 140
Nc1nc2cc(-c3cccc(OCCC(F)(F)Cc4ccccc4)c3F)ccn2n1 [Example 74, 7-(3-(3,3-difluoro-4-phenylbutoxy)-2-fluorophenyl)-[1,2,4]triazolo[1,5-a]pyridin-2-amine] |  |  |  |  |  | 5

From patent US20260217711A1, “TRIAZOLOPYRIDINYL ETHER LINKED COMPOUNDS AS KINASE INHIBITORS” (Bristol-Myers Squibb Company, priority 2023, published 2026)
